The source of these data is patent US10696674B2, “Spirolactams as inhibitors of ROCK” (BRISTOL-MYERS SQUIBB COMPANY, priority 2016, dated 2020).

Where two headings read alike, the source gives them in different places.

Test [1] deals with ROCK2 (Homo sapiens, UniProt O75116). The experiment in a line: ROCK2 assay (Caliper LABCHIP peptide phosphorylation). The class given is biochemical. As to conditions: 5 μM ATP, 1.5 μM peptide substrate. The method, then: The effectiveness of compounds of the present invention as ROCK inhibitors can be determined in a 30 μL assay containing 20 mM HEPES, pH 7.5, 20 mM MgCl2, 0.015% Brij-35, 4 mM DTT, 5 μM ATP and 1.5 μM peptide substrate (FITC-AHA-AKRRRLSSLRA-OH) (SEQ ID NO.1). Compounds were dissolved in DMSO so that the final concentration of DMSO was <2%, and the reaction was initiated with Rho kinase variants. After incubation, the reaction was terminated by the addition of EDTA and the phosphorylated and non-phosphorylated peptides separated using a LABCHIP® 3000 Reader (Caliper Life Sciences). […] Compounds were tested in dose-response format, and the inhibition of kinase activity was calculated at each concentration of compound. The inhibition data were fit using a curve-fitting program to determine the IC50; i.e., the concentration of compound required to inhibit 50% of kinase activity.
Representative Examples were tested in the ROCK2 assay described above and found having ROCK2 inhibitory activity. The ranges of the ROCK2 IC50 values are as follows: ROCK2 IC50: ++++ (<3 nM) +++ (3-30 nM) ++ (30-300 nM) + (300-2000 nM)

Test [2] has as its system ROCK. The conditions noted are these: rats, balloon injury model; cited from earlier work.
Test [3] concerns ROCK. The conditions noted are these: rat, in vivo; cited from earlier work.
Test [4] deals with ROCK. As to conditions: cited from earlier work.
The test system of test [5] is ROCK. The conditions noted are these: rat, in vivo; cited from earlier work. The source holds these as a separate data set.
In test [6] the test system is ROCK. The conditions noted are these: long term treatment; cited from earlier work.

Sequence of ROCK2 (O75116 whole entry, species assumed): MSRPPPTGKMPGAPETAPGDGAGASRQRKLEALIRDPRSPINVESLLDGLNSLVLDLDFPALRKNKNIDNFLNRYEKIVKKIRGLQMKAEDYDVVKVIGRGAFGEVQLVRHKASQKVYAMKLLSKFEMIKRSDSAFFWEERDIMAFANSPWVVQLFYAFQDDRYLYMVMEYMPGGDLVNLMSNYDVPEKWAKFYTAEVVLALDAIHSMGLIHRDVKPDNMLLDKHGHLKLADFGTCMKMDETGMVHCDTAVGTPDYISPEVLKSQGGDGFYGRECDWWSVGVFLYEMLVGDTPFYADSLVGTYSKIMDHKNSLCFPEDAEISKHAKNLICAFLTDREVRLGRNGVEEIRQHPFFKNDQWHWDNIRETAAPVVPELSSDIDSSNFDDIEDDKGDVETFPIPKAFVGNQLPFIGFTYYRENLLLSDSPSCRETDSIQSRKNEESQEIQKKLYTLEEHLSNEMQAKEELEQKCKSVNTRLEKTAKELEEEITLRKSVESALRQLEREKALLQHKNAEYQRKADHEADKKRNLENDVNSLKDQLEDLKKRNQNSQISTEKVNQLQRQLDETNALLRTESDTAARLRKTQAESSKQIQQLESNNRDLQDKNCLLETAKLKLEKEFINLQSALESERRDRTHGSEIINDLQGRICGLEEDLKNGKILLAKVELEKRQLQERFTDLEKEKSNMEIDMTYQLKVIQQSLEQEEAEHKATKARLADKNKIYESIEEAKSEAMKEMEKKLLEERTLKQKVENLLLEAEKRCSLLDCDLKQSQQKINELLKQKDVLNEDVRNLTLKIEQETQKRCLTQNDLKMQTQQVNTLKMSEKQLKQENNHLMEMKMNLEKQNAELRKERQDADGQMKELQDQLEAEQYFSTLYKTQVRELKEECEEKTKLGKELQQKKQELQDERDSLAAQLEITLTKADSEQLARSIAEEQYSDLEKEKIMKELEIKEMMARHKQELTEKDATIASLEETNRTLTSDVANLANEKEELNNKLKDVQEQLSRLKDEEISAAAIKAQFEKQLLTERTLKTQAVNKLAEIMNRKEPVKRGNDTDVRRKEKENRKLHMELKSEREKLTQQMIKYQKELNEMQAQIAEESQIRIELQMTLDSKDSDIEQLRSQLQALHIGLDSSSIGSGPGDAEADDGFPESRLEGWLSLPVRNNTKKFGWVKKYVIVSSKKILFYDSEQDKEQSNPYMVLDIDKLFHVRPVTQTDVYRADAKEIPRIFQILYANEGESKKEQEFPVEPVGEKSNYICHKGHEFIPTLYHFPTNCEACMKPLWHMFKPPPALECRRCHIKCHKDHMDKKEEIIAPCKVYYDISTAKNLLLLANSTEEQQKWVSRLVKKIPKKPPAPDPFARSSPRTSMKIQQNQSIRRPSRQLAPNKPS

Consider `O=C1N(c2ccc(-c3cn[nH]c3)cc2)CC(CO)C12Cc1ccccc1N2` (stereo not drawn) [Example 52, 1′-(4-(1H-pyrazol-4-yl)phenyl)-4′-(hydroxymethyl)spiro[indoline-2,3′-pyrrolidin]-2′-one], for which the IC50 – broadly, the concentration at which inhibition is half-maximal – in test [1] was < 3 nM.
Still for that read-out and setting: to `NCC1CN(c2ccc(-c3cn[nH]c3)cc2)C(=O)C12Cc1ccccc1N2` (stereo not drawn) [Example 53, 1′-(4-(1H-pyrazol-4-yl)phenyl)-4′-(aminomethyl)spiro[indoline-2,3′-pyrrolidin]-2′-one] belongs < 3 nM; to `O=C1N(c2ccc(-c3cn[nH]c3)cc2)CC(CO)[C@@]12Cc1ccccc1N2` (stereo partly drawn) [Example 54, (2S)-1′-(4-(1H-pyrazol-4-yl)phenyl)-4′-(hydroxymethyl)spiro[indoline-2,3′-pyrrolidin]-2′-one], < 3 nM.
As for `O=C1N(c2ccc(-c3cn[nH]c3)cc2)CC(CO)[C@]12Cc1ccccc1N2` (stereo partly drawn) [Example 55, (2R)-1′-(4-(1H-pyrazol-4-yl)phenyl)-4′-(hydroxymethyl)spiro[indoline-2,3′-pyrrolidin]-2′-one], the IC50 in test [1] lay in the range of 30 to 300 nM.
Still for that read-out and setting: the result for `O=C1N(c2ccc(-c3cn[nH]c3)cc2)CC(CO)C12CCc1ccccc1N2` (stereo not drawn) [Example 56, 1-(4-(1H-pyrazol-4-yl)phenyl)-4-(hydroxymethyl)-3′,4′-dihydro-1′H-spiro[pyrrolidine-3,2′-quinolin]-2-one] reads < 3 nM.
For `C[C@@H](N)[C@H]1CC[C@H](C(=O)Nc2ccncc2)CC1` [Example Y-27632, Y-27632], the neointimal formation result in test [2] is reported as “inhibited neointimal formation”. Also, the “ventricular hypertrophy, fibrosis and function” value in test [3] is “improve ventricular hypertrophy, fibrosis and function”. In addition, the blood pressure result in test [4] (control rats) was “only a minor effect on blood pressure”; in test [4] (spontaneously hypertensive rat, renal hypertensive rat and deoxycortisone acetate salt hypertensive rat models), “significantly decrease blood pressure”.
As to `O=S(=O)(c1cccc2cnccc12)N1CCCNCC1` [fasudil], the “infarct size and neurologic deficit” value in test [5] was “reduce both the infarct size and neurologic deficit”. Besides, in test [6], the coronary constrictive remodeling entry is “promote a regression of coronary constrictive remodeling” and the coronary stenosis result was “progressively reduce coronary stenosis”.
